Columns and labels:
[1] = system: P. paneum; assay: accelerated shelf-life testing (ASLT): time of appearance (TOA) and growth pattern of P. paneum on inoculated breadcrumbs; assay type: cell-based, Penicillium paneum; details: CalPro 0.3% FWB; tin bread crumb, ±500 spores; Figure 1
Protocol: (§1) Breads were made by mixing the dough ingredients from Table 1. The wt.% for several ingredients are given based on flour weight (Flour Weight Based, FWB). For the prepared recipes the difference with total dry weight is insubstantial. The following breads were prepared: a control without any preservatives, a reference containing 0.3% flour weight based (FWB) calcium propionate (CalPro), and a bread containing 1% chitosan (KitoZyme, Belgium) with number average MW of 15 kDa and degree of deacetylation (DDA) of 70%. The chitosan sample was obtained from cell wall of A. niger (KitoZyme, Belgium). Ingredients were mixed using a spiral mixer for 10 minutes. Afterwards the dough for each trial was divided into three pieces of 520 g, rounded manually, and placed into bread tins. The dough pieces were placed in a proofing cabinet to rise at 40 °C and 80% relative humidity until they reach similar height (fermentation time between 60-70 min). The breads were baked for 22 minutes in a deck oven at 260 (bottom) and 230 (top) °C. [Table 1] Bread recipes
(§2) Following baking, the breads were cooled in a HEPA-filtered chamber for 90 min. One bread was used for pH measurement and two breads were subjected to ASLT.
To perform ASLT, the remaining two breads were sliced to 13 mm slices. […]

[2] = system: A. niger; assay: accelerated shelf-life testing (ASLT): time of appearance (TOA) of A. niger on inoculated breadcrumbs; assay type: cell-based, Aspergillus niger
Protocol: as §1, §2
To perform ASLT, the remaining two breads were sliced to 13 mm slices. The crumb (inner part of breads) of three random slices from each bread were cut out using a cookie cutter (3.2 cm diameter) and placed in sterile 6-well plates (2x breads x 3 slices). Two 6-well plates were prepared per bread type. Each bread piece in a 6-well plate was inoculated with 3 aliquots of ±500 spores ([…]) of either A. niger or P. paneum. Therefore, 18 spots of each mould were inoculated per trial (6 bread piece × 3 aliquots). Freeze-dried spores were used in all experiments. The inoculated breads incubated at room temperature of around 21 °C until visible mould appearance. The appearance of the moulds was imaged by taking photographs. The images were inspected visually, and the TOA was defined as mould appearance in hours after mould inoculation. […]

[3] = cited from earlier work

| Compound | increased TOA of P. paneum compared to control bread without preservatives [1] [%] | effectiveness against A. niger, CalPro compared to chitosan ([2]; CalPro 0.3% FWB vs chitosan 1% FWB) | increased TOA of A. niger compared to control bread without preservatives ([2]; CalPro 0.3% FWB, tin bread crumb, ±500 spores, Figure 1A) [%] | increase in TOA of A. niger compared to control without preservative ([2]; CalPro alone 0.3% FWB, Figure 2 A-B) | pKa [3] |
| --- | --- | --- | --- | --- | --- |
| CCC(=O)[O-].CCC(=O)[O-].[Ca+2] [CalPro, calcium propionate] | 17 | more effective against A. niger | 80 | approximately 50% | – |
| CC(O)C(=O)O (stereo not drawn) [lactic acid] | – | – | – | – | about 3.85 |
| C/C=C/C=C/C(=O)O [sorbic acid] | – | – | – | – | about 4.76 |

Source: patent EP4516107A1, “CHITOSAN AND ORGANIC ACID HAVING A PKA OF 4 OR MORE, OR A SALT THEREOF IN BAKERY PRODUCTS” (Mauri Technology B.V., priority 2023, dated 2025)
